Assay results published in patent publication US8158794B2, “Hydroxyalkyl substituted imidazoquinoline compounds and methods” (3M Innovative Properties Company, priority 2005, dated 2012).
Where a name gives a salt, the structure may show the parent alone. Read-outs that look alike come from different tables or passages of the source.

Tests used:
[1] = tested on: interferon (α) (IFN-α); experiment: Cytokine induction in human cells: IFN-α secreted by PBMC (ELISA); format: cell-based; design: key to Maximal Response (pg/mL) IFN: *: Below experimental background level; details: median if more than one experiment; for minimal effective concentration: lowest tested concentration inducing response over 20 pg/mL, read-out: Minimum Effective Concentration (μM) IFN; for Maximal Response (pg/mL) IFN: background-subtracted, reference-adjusted
Text: (§1) An in vitro human blood cell system is used to assess cytokine induction. Activity is based on the measurement of interferon (α) and tumor necrosis factor (α) (IFN-α and TNF-α, respectively) secreted into culture media as described by Testerman et. al. in “Cytokine Induction by the Immunomodulators Imiquimod and S-27609”, Journal of Leukocyte Biology, 58, 365-372 (September, 1995).
(§2) Whole blood from healthy human donors is collected by venipuncture into vacutainer tubes or syringes containing EDTA. Peripheral blood mononuclear cells (PBMC) are separated from whole blood by density gradient centrifugation using HISTOPAQUE-1077 (Sigma, St. Louis, Mo.) or Ficoll-Paque Plus (Amersham Biosciences Piscataway, N.J.). Blood is diluted 1:1 with Dulbecco's Phosphate Buffered Saline (DPBS) or Hank's Balanced Salts Solution (HBSS). Alternately, whole blood is placed in Accuspin (Sigma) or LeucoSep (Greiner Bio-One, Inc., Longwood, Fla.) centrifuge frit tubes containing density gradient medium. The PBMC layer is collected and washed twice with DPBS or HBSS and re-suspended at 4×10^6 cells/mL in RPMI complete. The PBMC suspension is added to 96 well flat bottom sterile tissue culture plates containing an equal volume of RPMI complete media containing test compound.
(§3) The compounds are solubilized in dimethyl sulfoxide (DMSO). The DMSO concentration should not exceed a final concentration of 1% for addition to the culture wells. The compounds are generally tested at concentrations ranging from 30-0.014 μM. Controls include cell samples with media only, cell samples with DMSO only (no compound), and cell samples with reference compound.
(§4) The solution of test compound is added at 60 μM to the first well containing RPMI complete and serial 3 fold dilutions are made in the wells. The PBMC suspension is then added to the wells in an equal volume, bringing the test compound concentrations to the desired range (usually 30-0.014 μM). The final concentration of PBMC suspension is 2×10^6 cells/mL. The plates are covered with sterile plastic lids, mixed gently and then incubated for 18 to 24 hours at 37° C. in a 5% carbon dioxide atmosphere.
(§5) Following incubation the plates are centrifuged for 10 minutes at 1000 rpm (approximately 200×g) at 4° C. The cell-free culture supernatant is removed and transferred to sterile polypropylene tubes. Samples are maintained at −30 to −70° C. until analysis. The samples are analyzed for IFN-α by ELISA and for TNF-α by IGEN/BioVeris Assay.
IFN-α concentration is determined with a human multi-subtype colorimetric sandwich ELISA (Catalog Number 41105) from PBL Biomedical Laboratories, Piscataway, N.J. Results are expressed in pg/mL.
(§6) In total, the data output of the assay consists of concentration values of TNF-α and IFN-α(y-axis) as a function of compound concentration (x-axis).
Analysis of the data has two steps. First, the greater of the mean DMSO (DMSO control wells) or the experimental background (usually 20 pg/mL for IFN-α and 40 pg/mL for TNF-α) is subtracted from each reading. If any negative values result from background subtraction, the reading is reported as “*”, and is noted as not reliably detectable. In subsequent calculations and statistics, “*”, is treated as a zero. Second, all background subtracted values are multiplied by a single adjustment ratio to decrease experiment to experiment variability. The adjustment ratio is the area of the reference compound in the new experiment divided by the expected area of the reference compound based on the past 61 experiments (unadjusted readings). […] The reference compound used is 2-[4-amino-2-ethoxymethyl-6,7,8,9-tetrahydro-α,α-dimethyl-1H-imidazo[4,5-c]quinolin-1-yl]ethanol hydrate (U.S. Pat. No. 5,352,784; Example 91) and the expected area is the sum of the median dose values from the past 61 experiments.
The minimum effective concentration is calculated based on the background-subtracted, reference-adjusted results for a given experiment and compound. […]

[2] = tested on: tumor necrosis factor (α) (TNF-α); experiment: Cytokine induction in human cells: TNF-α secreted by PBMC (ORIGEN M-Series immunoassay); format: cell-based; design: key to Maximal Response (pg/mL) TNF: *: Below experimental background level; details: median if more than one experiment; for minimal effective concentration: lowest tested concentration inducing response over 40 pg/mL, read-out: Minimum Effective Concentration (μM) TNF; for Maximal Response (pg/mL) TNF: background-subtracted, reference-adjusted
Text: as §1, §2, §3, §4, §5
The TNF-α concentration is determined by ORIGEN M-Series Immunoassay and read on an IGEN M-8 analyzer from BioVeris Corporation, formerly known as IGEN International, Gaithersburg, Md. The immunoassay uses a human TNF-α capture and detection antibody pair (Catalog Numbers AHC3419 and AHC3712) from Biosource International, Camarillo, Calif. Results are expressed in pg/mL.
as §6
Analysis of the data has two steps. First, the greater of the mean DMSO (DMSO control wells) or the experimental background (usually 20 pg/mL for IFN-α and 40 pg/mL for TNF-α) is subtracted from each reading. If any negative values result from background subtraction, the reading is reported as “*”, and is noted as not reliably detectable. In subsequent calculations and statistics, “*”, is treated as a zero. Second, all background subtracted values are multiplied by a single adjustment ratio to decrease experiment to experiment variability. The adjustment ratio is the area of the reference compound in the new experiment divided by the expected area of the reference compound based on the past 61 experiments (unadjusted readings). […]

Row | SMILES | minimal effective concentration ([1]; 18 to 24 hours) | Maximal Response (pg/mL) IFN ([1]; tested 30-0.014 μM) | minimal effective concentration ([2]; 18 to 24 hours) | Maximal Response (pg/mL) TNF ([2]; tested 30-0.014 μM) | other results
1 | Cc1ccc(-c2ccc3c(c2)nc(N)c2nc(CO)n(CC(C)(C)O)c23)cc1 [Example 10] | 0.37 µM | 1681 pg/mL | 0.37 µM | 7423 pg/mL | –
2 | CC(C)(O)Cn1c(CO)nc2c(N)nc3cc(-c4cccnc4)ccc3c21 (hydrate or solvate) [Example 51] | – | – | – | – | melting point: 141 to 143 °C
3 | Nc1nc2cc(-c3ccccc3O)ccc2c2c1nc(CCO)n2CCCN1CCCC1=O (hydrate or solvate) [Example 48] | – | – | – | – | melting point: > 250 °C
4 | CCc1nc2c(N)nc3cc(-c4cccnc4)ccc3c2n1CC(C)(C)O [Analog 1, 1-(4-amino-2-ethyl-7-pyridin-3-yl-1H-imidazo[4,5-c]quinolin-1-yl)-2-methylpropan-2-ol, reference compound] | 0.12 µM | – | 0.37 µM | – | minimal effective concentration ([1]; Table 3, 18 to 24 hours): 0.12 µM; minimal effective concentration ([2]; Table 3, 18 to 24 hours): 0.37 µM
5 | CC(C)(O)Cn1c(CO)nc2c(N)nc3cc(-c4cccnc4)ccc3c21 [Example 8] | 0.37 µM | 2886 pg/mL | 10 µM | 51 pg/mL | minimal effective concentration ([1]; Table 3, 18 to 24 hours): 1.11 µM; Maximal Response (pg/mL) IFN ([1]; Table 3, tested 30-0.014 μM): 2251 pg/mL; minimal effective concentration ([2]; Table 3, 18 to 24 hours): >30 µM; Maximal Response (pg/mL) TNF ([2]; Table 3, tested 30-0.014 μM): * (Below experimental background level of 40/pg mL)
6 | CS(=O)(=O)N1CCC(Cn2c(CO)nc3c(N)nc4cc(-c5cncc(CO)c5)ccc4c32)CC1 (as salt: HBr) (hydrate or solvate) [Example 44] | – | – | – | – | melting point: > 300 °C
7 | CC(C)(O)Cn1c(CCO)nc2c(N)nc3cc(-c4ccccc4)ccc3c21 [Example 2] | 0.37 µM | 1274 pg/mL | 3.33 µM | 67 pg/mL | –
8 | CC(C)C(=O)N1CCC(Cn2c(CO)nc3c(N)nc4cc(-c5cccnc5)ccc4c32)CC1 (hydrate or solvate) [Example 35] | – | – | – | – | melting point: 154 to 157 °C
9 | Cc1cccc(-c2ccc3c(c2)nc(N)c2nc(CCO)n(CCCN4CCCC4=O)c23)c1 (hydrate or solvate) [Example 47] | – | – | – | – | melting point: 218 to 221 °C
10 | Nc1nc2cc(-c3cccc(C(=O)N4CCCC4)c3)ccc2c2c1nc(CO)n2CC1CCOCC1 [Example 139, [4-Amino-7-[3-(pyrrolidin-1-ylcarbonyl)phenyl]-1-(tetrahydro-2H-pyran-4-ylmethyl)-1H-imidazo[4,5-c]quinolin-2-yl]methanol] | – | – | – | – | melting point: 281 to 284 °C
11 | CC(C)Cn1c(CCO)nc2c(N)nc3cc(-c4cncc(CO)c4)ccc3c21 [Example 4] | 0.12 µM | 1891 pg/mL | 10 µM | 349 pg/mL | –
12 | CC(C)Cn1c(CCO)nc2c(N)nc3cc(-c4cccnc4)ccc3c21 [Example 3] | 0.37 µM | 1180 pg/mL | 3.33 µM | 42 pg/mL | –
13 | CC(C)(O)Cn1c(CO)nc2c(N)nc3cc(-c4cncc(CO)c4)ccc3c21 [Example 33] | 0.37 µM | – | > 30 µM | * | –
14 | CC(C)C(=O)N1CCC(Cn2c(CO)nc3c(N)nc4cc(-c5cccnc5)ccc4c32)CC1 [Example 35] | 1.11 µM | – | > 30 µM | * | –
15 | CCCNC(=O)NCCCCn1c(CO)nc2c(N)nc3cc(-c4cccnc4)ccc3c21 [Example 39] | 0.37 µM | – | 30 µM | – | –
16 | CCCc1nc2c(N)nc3cc(-c4cccnc4)ccc3c2n1CC(C)(C)O [Analog 2, 1-(4-amino-2-propyl-7-pyridin-3-yl-1H-imidazo[4,5-c]quinolin-1-yl)-2-methylpropan-2-ol, reference compound] | 0.04 µM | – | 0.37 µM | – | minimal effective concentration ([1]; Table 3, 18 to 24 hours): 0.04 µM; minimal effective concentration ([2]; Table 3, 18 to 24 hours): 0.37 µM
17 | Nc1nc2cc(-c3cccc(C(=O)N4CCOCC4)c3)ccc2c2c1nc(CO)n2CC1CCCCC1 [Example 50] | 1.11 µM | – | > 30 µM | * | –
18 | CCOCc1nc2c(N)nc3cc(-c4cccnc4)ccc3c2n1CC(C)(C)O [Analog 3, 1-(4-amino-2-ethoxymethyl-7-pyridin-3-yl-1H-imidazo[4,5-c]quinolin-1-yl)-2-methylpropan-2-ol, reference compound] | 0.04 µM | – | 0.12 µM | – | minimal effective concentration ([1]; Table 3, 18 to 24 hours): 0.04 µM; minimal effective concentration ([2]; Table 3, 18 to 24 hours): 0.12 µM
19 | CC(C)C(=O)N1CCC(Cn2c(CO)nc3c(N)nc4cc(-c5cncc(CO)c5)ccc4c32)CC1 [Example 45] | > 30 µM | * | > 30 µM | * | –
20 | Nc1nc2cc(-c3cccnc3)ccc2c2c1nc(CO)n2CCCCNC(=O)NC1CCCC1 [Example 41] | 0.04 µM | – | 10 µM | – | –
21 | CC(C)(O)Cn1c(CO)nc2c(N)nc3cc(-c4cccc(O)c4)ccc3c21 [Example 13] | 0.37 µM | 12641 pg/mL | 10 µM | 352 pg/mL | –
22 | CC(C)C(=O)NCCCCn1c(CO)nc2c(N)nc3cc(-c4cccnc4)ccc3c21 [Example 43] | 0.37 µM | – | 10 µM | – | –
23 | Cc1cccc(-c2ccc3c(c2)nc(N)c2nc(CO)n(CC(C)(C)O)c23)c1 [Example 9] | 30 µM | 87 pg/mL | >30 µM | * | –
24 | Nc1nc2cc(-c3cncc(CO)c3)ccc2c2c1nc(CO)n2CC1CCCCC1 [Example 49] | 3.33 µM | – | > 30 µM | * | –
